Experiments:
Format in all cases: in vivo, mice (ddY, male)
[1] = Acute toxicity test (oral, mortality 1 week after administration); settings: mouse, in vivo, mice, in olive oil
Procedure: (§1) A test compound was suspended in olive oil and administered orally to mice (ddY mice,.male., 23±2 g, n=5 or 6). The actute toxicity value (LD50) was determined from the mortality 1 week after the administration.

[2] = test system: mice; assay: as above
Procedure: as §1

[3] = test system: acute liver injury induced by carbon tetrachloride; assay: Protective effect on acute liver injury induced by carbon tetrachloride (mice, oral): plasma GPT activity and BSP retention; settings: 6 h before CCl4 (0.05 ml/kg p.o.); for GPT activity: plasma; for Retained BSP: plasma 30 min after BSP 75 mg/kg i.v.
Procedure: 1. Protective Effect on Acute Liver Injury Induced by Carbon Tetrachloride
A test compound was dissolved or suspended in olive oil and administered orally to mice (ddY mice, .male., 23±2 g, n=5). After 6 hours, carbon tetrachloride (0.05 ml/kg) was administered orally. 24 Hours after the administration of carbon tetrachloride, BSP (sodium sulfobromophthalein; 75 mg/kg) was administered intravenously. Thirty minutes later, the cardiac blood was collected, and GPT (glutamic-pyruvic transaminase) activity and the retention rate of BSP in the plasma were measured.

CCOC(=O)C[N+](C)=c1sccs1.[Cl-] [Compound No. 2, N-(1,3-dithiol-2-ylidene)-N-methyl-N-ethoxycarbonylmethylammonium chloride]
LD50 at 168 h [1]: ≥ 1500 mg/kg
acute toxicity (in words) [2]: extremely low toxicity
GPT activity ([3]; 1 mg/kg): 3190 ± 412 Karmen units
Retained BSP ([3]; 1 mg/kg): 57.4 ± 12.3 µg/mL
GPT activity ([3]; 5 mg/kg): 192 ± 84 Karmen units
Retained BSP ([3]; 5 mg/kg): 17.1 ± 1.4 µg/mL

CN1CC[N+](=c2sccs2)CC1.[O-][Cl+3]([O-])([O-])[O-] [Compound No. 31, 1-(1,3-dithiol-2-ylidene)-4-methylpiperazinium perchlorate]
LD50 at 168 h [1]: ≥ 1500 mg/kg
acute toxicity (in words) [2]: extremely low toxicity
GPT activity ([3]; 1 mg/kg): 523 ± 111 Karmen units
Retained BSP ([3]; 1 mg/kg): 20.3 ± 3.4 µg/mL
GPT activity ([3]; 5 mg/kg): 148 ± 51 Karmen units
Retained BSP ([3]; 5 mg/kg): 12.6 ± 0.6 µg/mL

CCOC(=O)C1CCC[N+]1=c1sccs1.[O-][Cl+3]([O-])([O-])[O-] (stereo not drawn) [Compound No. 41, 1-(1,3-dithiol-2-ylidene)-2-ethoxycarbonyl pyrrolidinium perchlorate]
LD50 at 168 h [1]: ≥ 1500 mg/kg
acute toxicity (in words) [2]: extremely low toxicity
GPT activity ([3]; 1 mg/kg): 405 ± 73 Karmen units
Retained BSP ([3]; 1 mg/kg): 26.5 ± 3.1 µg/mL
GPT activity ([3]; 5 mg/kg): 165 ± 21 Karmen units
Retained BSP ([3]; 5 mg/kg): 17.9 ± 2.0 µg/mL

CCOC(=O)C1CCC[N+](=c2sccs2)C1.[I-] (stereo not drawn) [Compound No. 55, 1-(1,3-dithiol-2-ylidene)-3-ethoxycarbonylpiperidinium iodide]
LD50 at 168 h [1]: ≥ 1500 mg/kg
acute toxicity (in words) [2]: extremely low toxicity
GPT activity ([3]; 1 mg/kg): 2981 ± 169 Karmen units
Retained BSP ([3]; 1 mg/kg): 83.9 ± 14.1 µg/mL
GPT activity ([3]; 5 mg/kg): 361 ± 49 Karmen units
Retained BSP ([3]; 5 mg/kg): 18.3 ± 4.4 µg/mL

CCOC(=O)C1CC[N+](=c2sccs2)CC1.[O-][Cl+3]([O-])([O-])[O-] (stereo not drawn) [Compound No. 56, 1-(1,3-dithiol-2-ylidene)-4-ethoxycarbonylpiperidinium perchlorate]
LD50 at 168 h [1]: ≥ 1500 mg/kg
acute toxicity (in words) [2]: extremely low toxicity
GPT activity ([3]; 1 mg/kg): 2713 ± 147 Karmen units
Retained BSP ([3]; 1 mg/kg): 76.6 ± 13.1 µg/mL
GPT activity ([3]; 5 mg/kg): 216 ± 32 Karmen units
Retained BSP ([3]; 5 mg/kg): 21.0 ± 13.4 µg/mL

From patent publication US4737494A, “1,3-dithiole derivatives and pharmaceutical compositions” (priority 1984, dated 1988)
